Experimental data taken from the Deep4Chem optical property database.
Blank lines part the entries; values can stand above or below the compound they belong to.

Assay: solvent given as SMILES

SMILES: S=c1[nH]nc(-c2ccc(/C=C/c3ccc(-c4n[nH]c(=S)o4)cc3)cc2)o1
- absorption maximum (in CN(C)C=O): 334 nm

SMILES: Fc1ccc(N(c2ccccc2)c2ccc3ccc4c(N(c5ccccc5)c5ccc(F)cc5)ccc5ccc2c3c54)cc1
- absorption maximum (in ClCCl): 423 nm

SMILES: CN(C)c1ccc(/C=C2\CCCC2=O)cc1
- absorption maximum (in CC#N): 380 nm
- absorption maximum (in CC(C)=O): 379 nm
- absorption maximum (in CC(C)O): 390 nm
- absorption maximum (in CCCCCC): 357 nm
- absorption maximum (in CCCCO): 392 nm
- absorption maximum (in CCCO): 394 nm
- absorption maximum (in CCO): 390 nm
- absorption maximum (in CCOC(C)=O): 370 nm
- absorption maximum (in CCOCC): 365 nm
- absorption maximum (in CN(C)C=O): 383 nm
- absorption maximum (in CO): 391 nm
- absorption maximum (in CS(C)=O): 383 nm
- absorption maximum (in Cc1ccccc1): 373 nm
- absorption maximum (in ClC(Cl)(Cl)Cl): 370 nm
- absorption maximum (in ClC(Cl)Cl): 383 nm
- absorption maximum (in ClCCl): 383 nm
- absorption maximum (in S=C=S): 387 nm
- absorption maximum (in c1ccccc1): 380 nm
- absorption maximum (in c1ccncc1): 384 nm

SMILES: COc1ccc(/C=C/c2cc(/C=C/c3ccc(OC)cc3)nc(/C=C/c3ccc(N(c4ccccc4)c4ccccc4)cc3)n2)cc1
- absorption maximum (in ClCCl): 376 nm

SMILES: COc1ccc2c3ccc(OC)cc3n(-c3ccc(-c4nnc(-c5c(C(C)C)cc(C(C)C)cc5C(C)C)o4)cc3)c2c1
- absorption maximum (in Cc1ccccc1): 319 nm

Continued, values first:

- absorption maximum (in C1CCOC1): 339 nm
SMILES: Cc1csc(C)c1C1=C(c2c(C)sc(-c3ccc(-c4nc(-c5ccccc5)c(-c5ccccc5)[nH]4)cc3)c2C)C(F)(F)C(F)(F)C1(F)F

- absorption maximum (in ClC(Cl)Cl): 377 nm
SMILES: CCCCC1(CCCC)c2ccccc2-c2ccc(-c3c4c(nc5ccccc35)-c3cc5c(cc3CC4)-c3nc4ccccc4c(-c4ccc6c(c4)C(CCCC)(CCCC)c4ccccc4-6)c3CC5)cc21

- absorption maximum (in ClCCl): 357 nm
SMILES: O=Cc1ccc(C2=Cc3ccccc3P2(=O)c2ccccc2)cc1 (centres undefined)

- absorption maximum (in C1CCOC1): 348 nm
SMILES: N#Cc1c(N2CCCCC2)cc(-c2ccccc2)c2c1C(=O)c1ccccc1-2

- absorption maximum (in ClCCl): 309 nm
SMILES: N#Cc1ccc(N2c3c(sc4ccccc34)Sc3sc4ccccc4c32)cc1

- absorption maximum (in c1ccccc1): 426 nm
SMILES: Cc1nc2c(ccc3ccc(N(C)C)cc32)oc1=O
